Data taken from PMC10174618, “Monoterpenoid aryl hydrocarbon receptor allosteric antagonists protect against ultraviolet skin damage in female mice” (Nature Communications, 2023).

Columns and labels:
Experiment in all cases: biochemical
Parameters in all cases: KINOMEscan scanMAX active site-directed competition binding assay, percent of control, 468 kinases
Conditions in all cases: competition binding, percent of control
ACVRL1 = ACVRL1 (Homo sapiens, UniProt P37023)
Method in brief: (§1)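 Single-concentration screen (100 μM S-carvone) in a competition binding panel of 468 human kinases (KINOMEscan scanMAX); results given as percent of control, hit cutoff 35%.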

EGFR(L861Q) = EGFR(L861Q) (Homo sapiens, UniProt P00533, L861Q)
Method in brief: as §1

CDKL5 = CDKL5 (Homo sapiens, UniProt O76039)
Method in brief: as §1

NDR2 = target: T1, NDR2 (Homo sapiens, UniProt Q9Y2H1)
T1 construct: gene STK38L
Method in brief: as §1

RAF1 = RAF1 (Homo sapiens, UniProt P04049)
Method in brief: as §1

BMX = BMX (Homo sapiens, UniProt P51813)
BMX, sequence (P51813 whole entry): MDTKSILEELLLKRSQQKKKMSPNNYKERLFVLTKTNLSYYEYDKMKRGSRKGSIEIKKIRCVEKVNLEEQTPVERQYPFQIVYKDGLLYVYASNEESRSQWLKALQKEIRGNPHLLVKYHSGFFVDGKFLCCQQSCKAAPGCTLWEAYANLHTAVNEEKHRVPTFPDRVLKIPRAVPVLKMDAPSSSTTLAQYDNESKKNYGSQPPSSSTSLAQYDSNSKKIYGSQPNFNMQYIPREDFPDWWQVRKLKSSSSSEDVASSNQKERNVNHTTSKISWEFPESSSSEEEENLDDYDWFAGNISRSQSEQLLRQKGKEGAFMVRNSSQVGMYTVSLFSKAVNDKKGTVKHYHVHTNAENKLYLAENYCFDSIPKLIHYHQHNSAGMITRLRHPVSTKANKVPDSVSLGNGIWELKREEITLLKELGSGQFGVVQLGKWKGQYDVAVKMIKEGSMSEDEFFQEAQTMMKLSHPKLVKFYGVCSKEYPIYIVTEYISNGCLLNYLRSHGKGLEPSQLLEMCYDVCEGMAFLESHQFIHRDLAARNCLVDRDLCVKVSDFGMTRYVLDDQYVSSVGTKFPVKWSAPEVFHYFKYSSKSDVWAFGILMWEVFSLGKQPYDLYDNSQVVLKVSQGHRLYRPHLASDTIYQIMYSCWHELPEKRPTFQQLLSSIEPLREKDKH
Method in brief: as §1

PIK3CA(M1043I) = PIK3CA(M1043I) (Homo sapiens, UniProt P42336, M1043I)
Method in brief: as §1

AKT3 = AKT3 (Homo sapiens, UniProt Q9Y243)
Method in brief: as §1

PCTK2 = target: T2, PCTK2 (Homo sapiens, UniProt Q00537)
T2 construct: gene CDK17
Method in brief: as §1

EPHA5 = EPHA5 (Homo sapiens, UniProt P54756)
EPHA5, sequence (P54756 whole entry): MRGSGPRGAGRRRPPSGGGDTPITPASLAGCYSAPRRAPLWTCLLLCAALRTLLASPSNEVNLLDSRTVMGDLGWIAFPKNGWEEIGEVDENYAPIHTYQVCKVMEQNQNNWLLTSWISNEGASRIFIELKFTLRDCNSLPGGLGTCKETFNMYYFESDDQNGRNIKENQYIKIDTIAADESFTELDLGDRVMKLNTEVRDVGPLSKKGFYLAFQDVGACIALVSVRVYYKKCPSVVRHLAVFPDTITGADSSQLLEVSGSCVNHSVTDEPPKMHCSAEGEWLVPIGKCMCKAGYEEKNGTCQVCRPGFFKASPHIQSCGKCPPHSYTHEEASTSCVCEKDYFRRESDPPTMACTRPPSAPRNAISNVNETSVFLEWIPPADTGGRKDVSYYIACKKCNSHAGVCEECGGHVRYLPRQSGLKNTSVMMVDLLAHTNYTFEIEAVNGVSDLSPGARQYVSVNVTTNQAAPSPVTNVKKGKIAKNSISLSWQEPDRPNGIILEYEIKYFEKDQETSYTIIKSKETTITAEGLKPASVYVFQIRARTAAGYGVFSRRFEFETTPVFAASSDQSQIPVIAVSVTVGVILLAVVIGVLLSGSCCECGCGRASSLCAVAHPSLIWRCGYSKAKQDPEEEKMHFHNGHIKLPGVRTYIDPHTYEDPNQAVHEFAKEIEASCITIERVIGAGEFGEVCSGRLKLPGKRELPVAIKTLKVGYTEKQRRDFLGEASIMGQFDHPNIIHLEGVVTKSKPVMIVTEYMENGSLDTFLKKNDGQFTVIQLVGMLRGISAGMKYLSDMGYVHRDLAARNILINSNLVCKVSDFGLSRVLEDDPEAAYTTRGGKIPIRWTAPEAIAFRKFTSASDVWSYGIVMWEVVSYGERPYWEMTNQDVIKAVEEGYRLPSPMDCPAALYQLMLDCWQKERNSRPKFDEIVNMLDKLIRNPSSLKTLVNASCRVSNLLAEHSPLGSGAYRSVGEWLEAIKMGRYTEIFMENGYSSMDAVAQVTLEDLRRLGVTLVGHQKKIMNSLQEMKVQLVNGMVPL
Method in brief: as §1

LKB1 = target: T3, LKB1 (Homo sapiens, UniProt Q15831)
T3 construct: gene STK11
Method in brief: as §1

PDGFRB = PDGFRB (Homo sapiens, UniProt P09619)
Method in brief: as §1

CDKL2 = CDKL2 (Homo sapiens, UniProt Q92772)
Method in brief: as §1

ASK2 = target: T4, ASK2 (Homo sapiens, UniProt O95382)
T4 construct: gene MAP3K6
Method in brief: as §1

PFTAIRE2 = target: T5, PFTAIRE2 (Homo sapiens, UniProt Q96Q40)
T5 construct: gene CDK15
T5 sequence (Q96Q40 whole entry): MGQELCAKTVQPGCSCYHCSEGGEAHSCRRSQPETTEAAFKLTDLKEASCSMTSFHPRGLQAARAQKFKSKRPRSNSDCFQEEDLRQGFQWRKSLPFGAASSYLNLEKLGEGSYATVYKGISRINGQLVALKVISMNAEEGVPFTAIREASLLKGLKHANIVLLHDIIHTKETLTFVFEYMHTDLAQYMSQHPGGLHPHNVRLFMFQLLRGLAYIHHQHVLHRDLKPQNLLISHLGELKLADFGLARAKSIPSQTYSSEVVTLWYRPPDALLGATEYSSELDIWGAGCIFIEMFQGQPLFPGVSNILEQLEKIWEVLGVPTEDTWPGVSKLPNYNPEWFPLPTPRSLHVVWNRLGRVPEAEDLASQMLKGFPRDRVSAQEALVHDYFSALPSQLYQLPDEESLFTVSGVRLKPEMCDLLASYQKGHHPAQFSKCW
Method in brief: as §1

NDR1 = target: T6, NDR1 (Homo sapiens, UniProt Q15208)
T6 construct: gene STK38
T6 sequence (Q15208 whole entry): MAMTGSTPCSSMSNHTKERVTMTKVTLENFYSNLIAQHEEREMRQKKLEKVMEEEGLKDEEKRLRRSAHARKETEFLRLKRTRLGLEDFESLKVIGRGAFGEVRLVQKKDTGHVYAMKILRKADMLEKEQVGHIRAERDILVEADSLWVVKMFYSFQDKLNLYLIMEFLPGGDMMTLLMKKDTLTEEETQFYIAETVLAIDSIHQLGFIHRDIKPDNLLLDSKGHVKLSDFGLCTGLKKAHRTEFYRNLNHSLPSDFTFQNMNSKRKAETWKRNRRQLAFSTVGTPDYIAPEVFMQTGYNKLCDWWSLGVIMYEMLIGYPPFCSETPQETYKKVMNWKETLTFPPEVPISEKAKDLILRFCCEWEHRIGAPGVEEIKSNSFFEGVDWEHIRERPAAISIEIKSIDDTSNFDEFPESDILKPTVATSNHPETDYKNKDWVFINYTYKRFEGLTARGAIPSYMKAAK
Method in brief: as §1

ERK2 = target: T7, ERK2 (Homo sapiens, UniProt P28482)
T7 construct: gene MAPK1
T7 sequence (P28482 whole entry): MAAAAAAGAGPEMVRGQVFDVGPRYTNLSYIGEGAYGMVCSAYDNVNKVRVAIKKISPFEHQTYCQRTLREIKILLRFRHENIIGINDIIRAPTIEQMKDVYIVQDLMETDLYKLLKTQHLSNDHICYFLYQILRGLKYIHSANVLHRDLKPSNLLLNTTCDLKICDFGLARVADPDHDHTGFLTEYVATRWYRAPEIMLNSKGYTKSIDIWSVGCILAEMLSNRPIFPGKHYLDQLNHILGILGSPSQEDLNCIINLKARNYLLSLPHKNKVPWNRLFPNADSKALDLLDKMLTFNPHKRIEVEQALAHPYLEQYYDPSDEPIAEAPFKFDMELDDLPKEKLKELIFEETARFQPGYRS
Method in brief: as §1

FLT4 = FLT4 (Homo sapiens, UniProt P35916)
Method in brief: as §1

LOK = target: T8, LOK (Homo sapiens, UniProt O94804)
T8 construct: gene STK10
T8 sequence (O94804 whole entry): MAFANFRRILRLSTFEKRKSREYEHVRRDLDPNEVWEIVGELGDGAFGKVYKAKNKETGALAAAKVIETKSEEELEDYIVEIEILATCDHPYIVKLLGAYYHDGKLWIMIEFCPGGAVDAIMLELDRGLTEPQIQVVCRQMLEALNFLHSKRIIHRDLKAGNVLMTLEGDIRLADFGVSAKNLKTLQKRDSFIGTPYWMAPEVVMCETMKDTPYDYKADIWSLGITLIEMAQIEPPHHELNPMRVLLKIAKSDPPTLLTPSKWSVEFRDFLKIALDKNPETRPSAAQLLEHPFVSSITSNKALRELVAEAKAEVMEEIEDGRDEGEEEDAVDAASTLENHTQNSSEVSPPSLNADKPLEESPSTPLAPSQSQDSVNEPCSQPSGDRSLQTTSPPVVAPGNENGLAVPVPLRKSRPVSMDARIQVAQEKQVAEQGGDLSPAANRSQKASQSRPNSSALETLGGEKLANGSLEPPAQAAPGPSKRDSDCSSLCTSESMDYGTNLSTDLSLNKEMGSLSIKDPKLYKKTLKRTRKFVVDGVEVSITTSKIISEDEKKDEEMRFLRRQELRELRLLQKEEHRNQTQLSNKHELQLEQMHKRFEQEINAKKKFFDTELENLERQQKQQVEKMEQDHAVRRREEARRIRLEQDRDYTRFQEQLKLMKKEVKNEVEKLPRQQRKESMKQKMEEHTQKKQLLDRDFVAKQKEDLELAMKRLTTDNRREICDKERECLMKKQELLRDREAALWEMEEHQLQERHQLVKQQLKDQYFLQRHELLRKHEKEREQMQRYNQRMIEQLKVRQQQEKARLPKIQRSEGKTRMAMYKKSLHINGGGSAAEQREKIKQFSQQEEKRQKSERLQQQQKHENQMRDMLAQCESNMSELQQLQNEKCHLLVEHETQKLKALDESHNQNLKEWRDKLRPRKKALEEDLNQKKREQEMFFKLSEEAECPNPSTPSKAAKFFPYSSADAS
Method in brief: as §1

EPHB4 = EPHB4 (Homo sapiens, UniProt P54760)
Method in brief: as §1

BRK = target: T9, BRK (Homo sapiens, UniProt Q13882)
T9 construct: gene PTK6
T9 sequence (Q13882 whole entry): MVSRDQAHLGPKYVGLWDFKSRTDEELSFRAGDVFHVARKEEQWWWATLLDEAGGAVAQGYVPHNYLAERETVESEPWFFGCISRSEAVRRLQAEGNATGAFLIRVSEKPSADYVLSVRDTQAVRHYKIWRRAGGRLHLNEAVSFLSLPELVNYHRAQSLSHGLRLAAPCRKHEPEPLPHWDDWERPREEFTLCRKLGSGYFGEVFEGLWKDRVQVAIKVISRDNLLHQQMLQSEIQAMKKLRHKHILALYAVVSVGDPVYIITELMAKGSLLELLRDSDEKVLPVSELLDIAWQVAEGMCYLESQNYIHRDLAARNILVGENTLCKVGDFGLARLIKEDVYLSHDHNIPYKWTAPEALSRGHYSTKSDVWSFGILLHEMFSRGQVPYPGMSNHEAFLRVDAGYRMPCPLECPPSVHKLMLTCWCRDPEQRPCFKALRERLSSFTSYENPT
Method in brief: as §1

FES = FES (Homo sapiens, UniProt P07332)
Method in brief: as §1

ACVRL1, sequence (P37023 whole entry): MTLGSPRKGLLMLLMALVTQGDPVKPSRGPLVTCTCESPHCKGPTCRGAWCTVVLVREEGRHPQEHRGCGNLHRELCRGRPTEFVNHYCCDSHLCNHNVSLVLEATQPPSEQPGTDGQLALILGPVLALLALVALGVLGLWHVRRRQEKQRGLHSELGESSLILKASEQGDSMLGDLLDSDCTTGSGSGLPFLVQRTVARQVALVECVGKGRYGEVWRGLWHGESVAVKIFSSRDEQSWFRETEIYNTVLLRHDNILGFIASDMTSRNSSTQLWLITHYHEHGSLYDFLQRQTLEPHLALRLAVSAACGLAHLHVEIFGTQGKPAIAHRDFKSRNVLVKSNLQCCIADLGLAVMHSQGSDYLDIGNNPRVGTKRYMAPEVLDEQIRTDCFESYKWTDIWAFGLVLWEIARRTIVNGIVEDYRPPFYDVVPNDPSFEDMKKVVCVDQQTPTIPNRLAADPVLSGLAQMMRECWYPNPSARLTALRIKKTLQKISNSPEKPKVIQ

remaining binding at 100 µM (ACVRL1): 88%
remaining binding at 100 µM (EGFR(L861Q)): 65%
remaining binding at 100 µM (CDKL5): 96%
remaining binding at 100 µM (NDR2): 83%
remaining binding at 100 µM (RAF1): 99%
remaining binding at 100 µM (BMX): 67%
remaining binding at 100 µM (PIK3CA(M1043I)): 83%
remaining binding at 100 µM (AKT3): 90%
remaining binding at 100 µM (PCTK2): 97%
remaining binding at 100 µM (EPHA5): 61%
remaining binding at 100 µM (LKB1): 50%
remaining binding at 100 µM (PDGFRB): 69%
remaining binding at 100 µM (CDKL2): 85%
remaining binding at 100 µM (ASK2): 100%
remaining binding at 100 µM (PFTAIRE2): 87%
remaining binding at 100 µM (NDR1): 77%
remaining binding at 100 µM (ERK2): 76%
remaining binding at 100 µM (FLT4): 90%
remaining binding at 100 µM (LOK): 87%
remaining binding at 100 µM (EPHB4): 68%
remaining binding at 100 µM (BRK): 86%
remaining binding at 100 µM (FES): 69%
Structure (SMILES): C=C(C)[C@H]1CC=C(C)C(=O)C1 [S-carvone]
